From patent publication US20220340566A1, “BENZYL AMINE-CONTAINING 5,6-HETEROAROMATIC COMPOUNDS USEFUL AGAINST MYCOBACTERIAL INFECTION” (priority 2019, published 2022)

How the values were obtained:
[1] = tested on: Mycobacterium avium ATCC700898; test: Determination of IC85 against M. avium (resazurin fluorescence); type: cell-based; settings: Mycobacterium avium, ATCC700898, M. avium ATCC700898, CAMHB medium, 37° C., 3 days incubation then resazurin, fluorescence one day later; read-out: IC85
[2] = Metabolic stability test in pooled human liver microsomes; type: in vitro ADME; settings: human liver microsomes 0.5 mg protein/mL, 1 mmol/L NADPH, 37° C., 30 minutes
Summary of the method: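 Remaining-rate readout: parent compound left after 30 min versus 0 min (set as 100%), measured by LC/MS/MS or SPE/MS. Oxidative reaction ran at 37° C. with 1 mmol/L NADPH, 0.5 mg protein/mL pooled human microsomes, 50 mmol/L Tris-HCl pH 7.4 buffer.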

Row | SMILES | IC85 [1] [µM] | MS_h_% (remaining amount of compound after reaction, 0 minute = 100%) [2] [%]
1 | Cc1nn2ccc(Br)cc2c1C(=O)NCc1ccc(N2CCN(c3ccc(OC(F)(F)F)cc3)[C@@H](C)C2)c(F)c1.Cl [Compound I-1-122] | 0.066 | 81
2 | COc1ccn2nc(C)c(C(=O)NCc3ccc(N4CCC(c5ccc(OC(F)(F)F)cc5)CC4)c(F)c3)c2c1.Cl [Compound I-1-123] | 0.014 | 77
3 | CCc1nc2cc(F)ccn2c1C(=O)NCc1ccc(N2CCN(c3ccc(OC(F)(F)F)cc3)[C@H]3CCCC[C@@H]32)c(F)c1.Cl [Compound I-1-124] | 0.87 | 63
4 | COc1ccn2nc(C)c(C(=O)NCc3ccc(N4CCN(c5ccc(OC(F)(F)F)cc5)[C@H]5CCCC[C@@H]54)c(F)c3)c2c1 [Compound I-1-125] | 0.78 | 68
5 | Cc1ccn2nc(C(F)(F)F)c(C(=O)NCc3ccc(N4CCN(c5ccc(OC(F)(F)F)cc5)[C@@H](C)C4)c(F)c3)c2c1.Cl [Compound I-1-126] | 0.27 | 77
6 | CCc1nc2cc(F)ccn2c1C(=O)NCc1ccc(N2CCC(c3ccc(OC(F)(F)F)cc3)CC2)c(Cl)c1.Cl [Compound I-1-127] | 0.0077 | 93
7 | COc1ccn2nc(C)c(C(=O)NCc3ccc(N4CCC(c5ccc(OC(F)(F)F)cc5)CC4)c(Cl)c3)c2c1.Cl [Compound I-1-128] | 0.018 | 85
8 | COc1ccn2nc(C)c(C(=O)NCc3cc(F)c(N4CCN(c5ccc(OC(F)(F)F)cc5)[C@@H](C)C4)c(F)c3)c2c1.Cl [Compound I-1-129] | 0.0068 | 80
9 | COc1ccn2nc(C)c(C(=O)NCc3ccc(N4CCN(c5ccc(OC(F)(F)F)cc5)[C@@H](C)C4)c(F)c3F)c2c1.Cl [Compound I-1-130] | 0.049 | 74
10 | COc1ccn2nc(C)c(C(=O)NCc3cc(F)c(N4CCN(c5ccc(OC(F)(F)F)cc5)[C@@H](C)C4)cc3F)c2c1.Cl [Compound I-1-131] | 0.045 | 73
11 | COc1ccn2nc(C)c(C(=O)NCc3ccc(N4CCN(c5ccc(OC(F)(F)F)cc5)[C@@H](C)C4)c(Cl)c3)c2c1.Cl [Compound I-1-132] | 0.014 | 62
12 | COc1ccn2nc(C)c(C(=O)NCc3cc(F)c(N4CCC(c5ccc(OC(F)(F)F)cc5)CC4)c(F)c3)c2c1.Cl [Compound I-1-133] | 0.019 | 81
13 | CCc1nc2ccc(Cl)cn2c1C(=O)NCc1ccc(N2C[C@H](C)N(c3ccc(OCC(F)(F)F)nc3)C[C@H]2C)c(F)c1.Cl [Compound I-1-134] | 0.043 | 65
14 | CCc1nc2cc(F)ccn2c1C(=O)NCc1ccc(N2C[C@H](C)N(c3ccc(OCC(F)(F)F)nc3)C[C@H]2C)c(F)c1.Cl [Compound I-1-135] | 0.12 | 75
15 | CCc1nc2cc(F)ccn2c1C(=O)NCc1ccc(N2C[C@H](C)N(c3ccc(OC(F)(F)F)cc3)C[C@H]2C)c(F)c1.Cl [Compound I-1-136] | 0.016 | 86
16 | Cc1nc2ccc(Cl)cn2c1C(=O)NCc1ccc(N2C[C@H](C)N(c3ccc(OCC(F)(F)F)nc3)C[C@H]2C)c(F)c1.Cl [Compound I-1-137] | 0.1 | 91
17 | CCc1nc2ccc(Cl)cn2c1C(=O)NCc1ccc(C2=CCC(c3ccc(OC(F)(F)F)cc3)CC2)c(F)c1.Cl (stereo not shown) [Compound I-1-138] | 0.0068 | 83
18 | CCc1nc2ccc(Cl)cn2c1C(=O)NCc1ccc(N2CCN(c3ccc(OC(F)(F)F)cc3)[C@@H](C)C2)c(Cl)c1.Cl [Compound I-1-139] | 0.009 | 61
19 | Cc1nc2ccc(Cl)cn2c1C(=O)NCc1ccc(N2CCN(c3ccc(OC(F)(F)F)cc3)[C@@H](C)C2)c(Cl)c1.Cl [Compound I-1-140] | 0.0057 | 89
20 | CCc1nc2cc(F)ccn2c1C(=O)NCc1ccc(N2CCN(c3ccc(OC(F)(F)F)cc3)[C@@H](C)C2)c(Cl)c1.Cl [Compound I-1-141] | 0.002 | 93
21 | CCc1nc2ccc(Cl)cn2c1C(=O)NCc1ccc(C2CCN(c3ccc(OCC(F)(F)F)nc3)CC2)cc1F.Cl [Compound I-1-142] | 0.03 | 71
22 | CCOc1ccc(N2CCC(c3ccc(CNC(=O)c4c(CC)nc5ccc(Cl)cn45)c(F)c3)CC2)cc1.Cl [Compound I-1-143] | 0.023 | 77

Row | SMILES | IC85 [1] [µM] | MS_h_% (remaining amount of compound after reaction, 0 minute = 100%) [2] [%]
23 | CCc1nc2ccc(Cl)cn2c1C(=O)NCc1ccc(C2CCN(c3ccc(C(C)(C)C)cc3)CC2)cc1F.Cl [Compound I-1-144] | 0.017 | 67
24 | CCCCOc1ccc(N2CCC(c3ccc(CNC(=O)c4c(CC)nc5ccc(Cl)cn45)c(F)c3)CC2)cc1.Cl [Compound I-1-145] | 0.016 | 80
25 | CCc1nc2cc(F)ccn2c1C(=O)NCc1ccc(C2CCN(c3ccc(OCC(F)(F)F)nc3)CC2)cc1F.Cl [Compound I-1-146] | 0.026 | 85
26 | CCOc1ccc(N2CCC(c3ccc(CNC(=O)c4c(CC)nc5cc(F)ccn45)c(F)c3)CC2)cc1.Cl [Compound I-1-147] | 0.0083 | 91
27 | CCc1nc2cc(F)ccn2c1C(=O)NCc1ccc(C2CCN(c3ccc(C)cc3)CC2)cc1F.Cl [Compound I-1-148] | 0.0054 | 73
28 | CCc1nc2cc(F)ccn2c1C(=O)NCc1ccc(C2CCN(c3ccc(C(C)(C)C)cc3)CC2)cc1F.Cl [Compound I-1-149] | 0.015 | 63
29 | CCc1nc2cc(F)ccn2c1C(=O)NCc1ccc(C2CCN(c3ccc(C(F)(F)F)cc3)CC2)cc1F.Cl [Compound I-1-150] | 0.0024 | 65
30 | CCCCOc1ccc(N2CCC(c3ccc(CNC(=O)c4c(CC)nc5cc(F)ccn45)c(F)c3)CC2)cc1.Cl [Compound I-1-151] | 0.01 | 88
31 | Cc1nn2ccc(F)cc2c1C(=O)NCc1ccc(N2CCN(c3ccc(OC(F)(F)F)cc3)[C@@H](C)C2)c(F)c1.Cl [Compound I-1-152] | 0.11 | 87
32 | COc1ccn2nc(C)c(C(=O)NCc3ccc(N4C[C@H](C)N(c5ccc(OC(F)(F)F)cc5)C[C@H]4C)c(F)c3)c2c1.Cl [Compound I-1-153] | 0.031 | 72
33 | Cc1nc2cc(F)ccn2c1C(=O)NCc1ccc(N2CCC(c3ccc(OC(F)(F)F)cc3)CC2)c(F)c1 [Compound I-2-1] | 0.016 | 106
34 | COc1ccn2c(C(=O)NCc3ccc(N4CCN(c5ccc(OC(F)(F)F)cc5)[C@@H](C)C4)c(F)c3)c(C)nc2c1 [Compound I-2-2] | 0.37 | 97.7
35 | CCc1nc2cc(F)ccn2c1C(=O)NCc1ccc(N2CCN(c3ccc(OCC(F)(F)F)nc3)[C@@H](CC)C2)c(F)c1.Cl [Compound I-2-3] | 0.017 | 90.3
36 | CCc1nc2cc(F)ccn2c1C(=O)NCc1ccc(N2CCN(c3ccc(OC(F)(F)F)cc3)[C@@H](CC)C2)c(F)c1.Cl [Compound I-2-4] | 0.0065 | 90.1
37 | Cc1nc2ccc(F)cn2c1C(=O)NCc1ccc(N2CCN(c3ccc(C(F)(F)F)cn3)CC2)c(C(F)(F)F)c1 [Compound I-2-5] | 0.42 | 81.8
38 | CCCC[C@H]1CN(c2ccc(CNC(=O)c3c(CC)nc4cc(F)ccn34)cc2F)CCN1c1ccc(OC(F)(F)F)cc1.Cl [Compound I-2-6] | 0.0044 | 80.8
39 | Cc1cn2c(C(=O)NCc3ccc(N4CCN(c5ccc(C(F)(F)F)cn5)CC4)c(C(F)(F)F)c3)c(C)nc2cc1Cl [Compound I-2-7] | 0.59 | 79.3
40 | Cc1nc2ccc(F)cn2c1C(=O)NCc1ccc(N2CC(c3ccc(OC(F)(F)F)cc3)C2)c(F)c1 [Compound I-2-8] | 0.13 | 74.9
41 | CC[C@H]1CN(c2ccc(CNC(=O)c3c(C)nn4ccc(OC)cc34)cc2F)CCN1c1ccc(OC(F)(F)F)cc1.Cl [Compound I-2-9] | 0.019 | 73.5
42 | CCc1nc2ccc(Cl)cn2c1C(=O)NCc1ccc(N2CCN(c3ccc(OC(F)(F)F)cc3F)[C@@H](CC)C2)c(F)c1.Cl [Compound I-2-10] | 0.023 | 72.2
43 | Cc1nc2ccc(Br)cn2c1C(=O)NCc1ccc(N2CCN(c3ccc(C(F)(F)F)cn3)CC2)c(F)c1 [Compound I-2-11] | 0.02 | 71.7
44 | Cc1ccn2c(C(=O)NCc3ccc(N4CCN(c5ccc(OC(F)(F)F)cc5)CC4)c(F)c3)c(C)nc2c1 [Compound I-2-12] | 0.023 | 71.4
